One test has as its target T1, CDYL chromodomain (Homo sapiens, UniProt Q9Y232).
T1 construct: chromodomain residues 1-78 of NP_004815, N-terminal GST tag (pGEX4T) removed by thrombin for ITC, E. coli Rosetta2 BL21(DE3)pLysS
T1 sequence (Q9Y232 1-78 isoform Q9Y232-2): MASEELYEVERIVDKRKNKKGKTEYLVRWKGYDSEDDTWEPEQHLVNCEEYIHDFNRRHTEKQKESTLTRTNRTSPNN
As to the kind of experiment: isothermal titration calorimetry. Type of test: binding. A general note: In ITC the heat of successive injections is recorded.

In test [1] the target is T2, chromodomain of MPP8 (residues 55-116 of NP_059990) (UniProt Q99549-1 55-116).
T2 construct: M-phase phosphoprotein 8 (MPP8), chromodomain, residues 55-116 of NP_059990; source: E. coli Rosetta2 BL21(DE3)pLysS, purified (HisTrap FF, Superdex 75)
T2 sequence (looked up): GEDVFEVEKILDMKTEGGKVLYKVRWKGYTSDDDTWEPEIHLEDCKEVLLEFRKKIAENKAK
As to the kind of experiment: not stated; selectivity of UNC6261 among chromodomains (Figure S7); method not given. Particulars: both partners purified.

The target in test [2] is T3, chromodomain of CDYL2 (residues 1-75 of NP_689555) (UniProt Q8N8U2 1-75).
T3 construct: chromodomain Y-like protein 2 (CDYL2), chromodomain, residues 1-75 of NP_689555; source: E. coli Rosetta2 BL21(DE3)pLysS, purified (HisTrap FF, Superdex 75)
T3 sequence (looked up): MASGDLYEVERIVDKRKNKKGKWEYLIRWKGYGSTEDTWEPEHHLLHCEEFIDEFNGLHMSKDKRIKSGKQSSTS
The test can be described thus: AlphaScreen or HTRF; TR-FRET competition assay for CDYL2, dose-response; 20 mM tris pH 7.5, 150 mM NaCl, 0.05% Tween 20, 2 mM DTT; 1 h equilibration; tracer not named (ref. 30). The conditions noted are these: both partners purified.

Read-outs that look alike come from different tables or passages of the source. *1 amine or outer side, *2 acyl side, *3 side chain or, on linkers, in order; H or OH if unused. Where a SMILES comes first, the peptide text is derived from it. [ ]: non-standard residue; d: D form. X1 = N6‑isopropyl‑N6‑((1-methyl-1H-imidazol-5-yl)methyl)Lys, CC(C)N(CCCC[C@H](N[*:1])C(=O)[*:2])Cc1cncn1C; X2 = CC(C)N(CCCC[C@H](N[*:1])C(=O)[*:2])Cc1cncn1C; Phe(F5) = N[C@@H](Cc1c(F)c(F)c(F)c(F)c1F)C(=O)O; NMeA = CN[C@@H](C)C(=O)O; Inp = O=C(O)C1CCNCC1

As to `COC(=O)[C@H](CO)NC(=O)[C@H](CCCCN(Cc1cncn1C)C(C)C)NC(=O)[C@H](Cc1ccccc1)NC(=O)[C@H](C)NC(=O)[C@H](Cc1c(F)c(F)c(F)c(F)c1F)NC(=O)C1CCNCC1` [UNC6261, Methyl N ^6‐isopropyl‐N ^6‐((1‐methyl‐1H‐imidazol‐5‐yl)methyl)‐N ^2‐((S)‐3‐(perfluorophenyl)‐2‐(piperidine‐4‐carboxamido)propanoyl)‐L‐alanyl‐L‐phenylalanyl‐L‐lysyl‐L‐serinate] (H-[Inp][Phe(F5)]AF[X2]S-OMe), the Kd at CDYL chromodomain (read-out: Kd) amounted to 139 ± 3.3 nM. For `COC(=O)[C@H](CO)NC(=O)[C@H](CCCCN(Cc1cncn1C)C(C)C)NC(=O)[C@H](Cc1ccccc1)NC(=O)[C@H](C)N(C)C(=O)[C@H](Cc1c(F)c(F)c(F)c(F)c1F)NC(=O)C1CCNCC1` [UNC7394, Methyl N ^6‐isopropyl‐N ^6‐((1‐methyl‐1H‐imidazol‐5‐yl)methyl)‐N ^2‐N‐methyl‐N‐((S)‐3‐(perfluorophenyl)‐2‐(piperidine‐4‐carboxamido)propanoyl)‐L‐alanyl‐L‐phenylalanyl‐L‐lysyl‐L‐serinate] (H-[Inp][Phe(F5)][NMeA]F[X2]S-OMe), on CDYL chromodomain (read-out: no measurable binding), the Kd was over 50000 nM.

B1: UNC6261 (peptide)
peptide: {piperidine‑4‑carbonyl}-[Phe(F5)]AF[X1]S-OMe
notes: peptidomimetic pentapeptide; F1 stands for pentafluorophenylalanine, K4 for the dialkylated lysine mimetic; also called CDYL antagonist; source: synthetic, purified by reverse phase flash chromatography (TFA salt)
As usually defined, the IC50 is the concentration that inhibits the measured activity by half. A low value points to greater potency. As to B1, the “fold selectivity for CDYL over MPP8” value in test [1] is 13 fold. Moreover, in test [2], the IC50 worked out at 81 ± 16 nM.

Source of the values: article PMC8981457, “Cdyl Deficiency Brakes Neuronal Excitability and Nociception through Promoting Kcnb1 Transcription in Peripheral Sensory Neurons” (Advanced Science, 2022).
